Experimental findings from the supplement of paper PMC10307832 are described below.

Assay in all cases: relative viability (nuclei count vs DMSO), 5 days (fraction); higher = more cells survive
Compound in one assay: OCc1c[nH]c2ccccc12 [Indole-3-carbinol]
The procedure, abridged:
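Lung cancer cell lines were seeded into 1536-well plates, kept overnight at 37 °C and pinned with five library-drug doses (not always all listed) spaced by √10. After 5 days, nuclei were Hoechst-stained, imaged at 4× and counted with MetaXpress. Viability is treated-well nuclei over vehicle-well nuclei, taken as a median across plates. Plates needed control CV below 25% and at least one doubling.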

Compound in assay [1]: OCc1c[nH]c2ccccc12 [Indole-3-carbinol] + Cc1nc(Nc2ncc(C(=O)Nc3c(C)cccc3Cl)s2)cc(N2CCN(CCO)CC2)n1 [Dasatinib] (partner 0.075 µM)
In a few lines: (§1)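 Relative viability was taken as the ratio of nuclei in treated wells to nuclei in vehicle wells. Lung cancer cell lines in 1536-well plates received compounds by pin tool one day after seeding, either one drug alone or a fixed anchor-drug dose plus five library-drug doses (not always all listed) in √10 steps. Nuclei were counted on 4× images after 5 days of treatment, and values are medians of duplicate plates.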

Compound in assay [2]: OCc1c[nH]c2ccccc12 [Indole-3-carbinol] + O=C(c1cc(Cc2n[nH]c(=O)c3ccccc23)ccc1F)N1CCN(C(=O)C2CC2)CC1 [Olaparib] (partner 8 µM)
In a few lines: as §1

Compound in assay [3]: OCc1c[nH]c2ccccc12 [Indole-3-carbinol] + Cc1nc(NC(=O)N2CCC[C@H]2C(N)=O)sc1-c1ccnc(C(C)(C)C(F)(F)F)c1 [Alpelisib] (partner 2 µM)
The procedure, abridged:
as §1

Compound in assay [4]: OCc1c[nH]c2ccccc12 [Indole-3-carbinol] + C[C@@H](Oc1cc(-c2cnn(C3CCNCC3)c2)cnc1N)c1c(Cl)ccc(F)c1Cl [Crizotinib] (partner 1 µM)
In a few lines:
as §1

Consider 201T, for which the relative viability in the assay with Indole-3-carbinol (0.253 µM) came out at 1.05; with Indole-3-carbinol (0.8 µM), 0.976; with Indole-3-carbinol (2.53 µM) it was 0.953; with Indole-3-carbinol (8 µM), 0.986; in assay [1] (first compound 0.253 µM), 0.556; in assay [1] (first compound 0.8 µM), 0.635. The relative viability in assay [1] (first compound 2.53 µM) came out at 0.566; in assay [1] (first compound 8 µM), 0.554; in assay [2] (first compound 0.253 µM) it was 0.849; in assay [2] (first compound 0.8 µM), 0.856; in assay [2] (first compound 2.53 µM), 0.843; in assay [2] (first compound 8 µM) it was 0.848. The relative viability is 0.954 in assay [3] (first compound 0.253 µM); 1.04 in assay [3] (first compound 0.8 µM); 1.06 in assay [3] (first compound 2.53 µM); 1.06 in assay [3] (first compound 8 µM); 1.03 in assay [4] (first compound 0.253 µM); 1.02 in assay [4] (first compound 0.8 µM). For the same cell line, the relative viability in assay [4] (first compound 2.53 µM) was determined as 1.07; in assay [4] (first compound 8 µM), 1.01.

Turning to A549, the relative viability in the assay with Indole-3-carbinol (0.253 µM) stood at 0.951; with Indole-3-carbinol (0.8 µM), 1.03; with Indole-3-carbinol (2.53 µM) it was 1.02; in the assay with Indole-3-carbinol (8 µM), 0.91; in assay [2] (first compound 0.253 µM), 0.458; in assay [2] (first compound 0.8 µM), 0.413. Besides, the relative viability in assay [2] (first compound 2.53 µM) amounted to 0.356; in assay [2] (first compound 8 µM) it was 0.322; in assay [3] (first compound 0.253 µM), 0.876; in assay [3] (first compound 0.8 µM), 0.842; in assay [3] (first compound 2.53 µM), 0.832; in assay [3] (first compound 8 µM), 0.66. The relative viability in assay [4] (first compound 0.253 µM) turned out to be 0.712; in assay [4] (first compound 0.8 µM), 0.914; in assay [4] (first compound 2.53 µM), 0.819; in assay [4] (first compound 8 µM), 0.765.

Regarding A-427, the relative viability was 0.96 with Indole-3-carbinol (0.253 µM); 0.95 in the assay with Indole-3-carbinol (0.8 µM); 0.982 with Indole-3-carbinol (2.53 µM); 0.97 with Indole-3-carbinol (8 µM); 0.676 in assay [1] (first compound 0.253 µM); 0.768 in assay [1] (first compound 0.8 µM). Besides, the relative viability stood at 0.742 in assay [1] (first compound 2.53 µM); 0.564 in assay [1] (first compound 8 µM); 0.661 in assay [2] (first compound 0.253 µM); 0.714 in assay [2] (first compound 0.8 µM); 0.788 in assay [2] (first compound 2.53 µM); 0.728 in assay [2] (first compound 8 µM). Besides, the relative viability in assay [3] (first compound 0.253 µM) turned out to be 1.01; in assay [3] (first compound 0.8 µM), 1.14; in assay [3] (first compound 2.53 µM), 1.05; in assay [3] (first compound 8 µM), 0.953; in assay [4] (first compound 0.253 µM), 0.888; in assay [4] (first compound 0.8 µM), 0.847. Moreover, the relative viability in assay [4] (first compound 2.53 µM) was determined as 1.18; in assay [4] (first compound 8 µM), 0.828.

Take ABC-1: the relative viability turned out to be 0.816 with Indole-3-carbinol (0.253 µM); 0.995 with Indole-3-carbinol (0.8 µM); 1.12 in the assay with Indole-3-carbinol (2.53 µM); 0.955 with Indole-3-carbinol (8 µM); 0.47 in assay [1] (first compound 0.253 µM); 0.596 in assay [1] (first compound 0.8 µM). Also, the relative viability in assay [1] (first compound 2.53 µM) came to 0.456; in assay [1] (first compound 8 µM), 0.591; in assay [2] (first compound 0.253 µM), 0.855; in assay [2] (first compound 0.8 µM), 0.97; in assay [2] (first compound 2.53 µM) it was 0.87; in assay [2] (first compound 8 µM) it was 0.761. Besides, the relative viability in assay [3] (first compound 0.253 µM) was found to be 0.923; in assay [3] (first compound 0.8 µM) it was 1.2; in assay [3] (first compound 2.53 µM), 1.01; in assay [3] (first compound 8 µM) it was 0.923; in assay [4] (first compound 0.253 µM), 0.973; in assay [4] (first compound 0.8 µM) it was 0.925. The relative viability came to 1.39 in assay [4] (first compound 2.53 µM) and 1.33 in assay [4] (first compound 8 µM).
